Measurements from the supplement of paper PMC10307832.

What was measured:
Assay in all cases: relative viability (nuclei count vs DMSO), 5 days (fraction); higher = more cells survive
[1] = compound: COC1=CC=C(C=C1)CN2C=CC3=C2C=C(C=C3)C(=O)NO + Cc1nc(Nc2ncc(C(=O)Nc3c(C)cccc3Cl)s2)cc(N2CCN(CCO)CC2)n1 [Dasatinib] (partner 0.075 µM)
Outline: (§1)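 After 5 days of treatment, lung cancer cells in 1536-well plates were fixed and stained in a single step (final 0.05% Triton X-100, 1% formaldehyde, 1 ug/ml Hoechst) and their nuclei counted on 4× images. Treatment had been applied by pin tool the day after seeding as one drug alone or as a fixed anchor-drug dose with five library-drug doses (not always all listed) in √10 steps. Relative viability is the nuclei count of treated wells divided by that of vehicle wells, and values are medians of duplicate plates.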

Veliparib + Foretinib = compound: C[C@]1(c2nc3c(C(N)=O)cccc3[nH]2)CCCN1 [Veliparib] + COc1cc2c(Oc3ccc(NC(=O)C4(C(=O)Nc5ccc(F)cc5)CC4)cc3F)ccnc2cc1OCCCN1CCOCC1 [Foretinib] (partner 0.25 µM)
Outline: as §1

[2] = compound: COC1=CC=C(C=C1)CN2C=CC3=C2C=C(C=C3)C(=O)NO + CC(C)C[C@H](NC(=O)[C@H](Cc1ccccc1)NC(=O)c1cnccn1)B(O)O [Bortezomib] (partner 0.002 µM)
Outline: as §1

Veliparib + Trametinib = compound: C[C@]1(c2nc3c(C(N)=O)cccc3[nH]2)CCCN1 [Veliparib] + CC(=O)Nc1cccc(-n2c(=O)n(C3CC3)c(=O)c3c(Nc4ccc(I)cc4F)n(C)c(=O)c(C)c32)c1 [Trametinib] (partner 0.02 µM)
Outline: as §1

Cell Line | relative viability ([1]; first compound 0.08 µM) | relative viability ([1]; first compound 0.253 µM) | relative viability ([1]; first compound 0.8 µM) | relative viability ([1]; first compound 2.53 µM) | relative viability ([1]; first compound 8 µM) | relative viability (Veliparib + Foretinib; first compound 0.02 µM) | relative viability (Veliparib + Foretinib; first compound 0.06325 µM) | relative viability (Veliparib + Foretinib; first compound 0.2 µM) | relative viability (Veliparib + Foretinib; first compound 0.6325 µM) | relative viability (Veliparib + Foretinib; first compound 2 µM) | relative viability ([2]; first compound 0.08 µM) | relative viability ([2]; first compound 0.253 µM) | relative viability ([2]; first compound 0.8 µM) | relative viability ([2]; first compound 2.53 µM) | relative viability ([2]; first compound 8 µM) | relative viability (Veliparib + Trametinib; first compound 0.02 µM) | relative viability (Veliparib + Trametinib; first compound 0.06325 µM) | relative viability (Veliparib + Trametinib; first compound 0.2 µM) | relative viability (Veliparib + Trametinib; first compound 0.6325 µM) | relative viability (Veliparib + Trametinib; first compound 2 µM)
NCI-H23 | 0.877 | 0.775 | 0.801 | 0.784 | 0.637 | 1.08 | 0.882 | 1.01 | 0.935 | 1.08 | 1.04 | 1.02 | 1.14 | 0.975 | 0.594 | 0.448 | 0.413 | 0.509 | 0.4 | 0.469
Calu-6 |  |  |  |  |  | 0.967 | 0.82 | 0.852 | 0.84 | 0.969 | 1.07 | 0.979 | 0.968 | 0.953 | 0.871 |  |  |  |  | 
NCI-H1623 | 0.389 | 0.487 | 0.517 | 0.525 | 0.418 | 0.639 | 0.796 | 0.855 | 0.811 | 0.716 |  |  |  |  |  |  |  |  |  | 
LC-2-ad | 0.407 | 0.633 | 0.582 | 0.677 | 0.349 |  | 0.894 | 0.903 | 0.837 | 0.939 | 0.964 | 0.989 | 1 | 0.959 | 0.769 | 0.897 | 0.904 | 0.914 | 0.891 | 0.912
HARA |  | 0.284 | 0.256 | 0.177 | 0.189 | 0.898 | 1.06 | 0.866 | 0.851 | 0.828 | 0.536 | 1.22 | 1.15 | 1.12 | 1.13 | 0.745 |  | 0.949 | 0.796 | 0.798
NCI-H1993 | 0.569 | 0.633 | 0.647 | 0.665 | 0.572 | 0.674 | 0.7 | 0.789 | 0.828 | 0.79 | 0.934 | 1.16 | 1.15 | 1.2 | 1.04 |  | 0.63 | 0.519 | 0.425 | 0.552
SK-MES-1 | 0.475 | 0.363 | 0.542 | 0.396 | 0.262 | 1 | 0.799 | 0.995 | 0.837 | 1.01 |  |  |  |  |  | 0.531 | 0.54 | 0.525 | 0.53 | 0.627
NCI-H2023 | 0.553 | 0.596 | 0.592 | 0.577 | 0.439 | 0.78 | 0.691 | 0.852 | 0.885 | 0.788 | 0.728 | 1.05 | 0.944 | 1.03 | 0.878 |  | 0.636 | 0.563 | 0.563 | 0.477
EMC-BAC-2 | 0.324 | 0.333 | 0.347 | 0.357 | 0.298 | 0.999 | 0.911 | 1.11 | 1.01 | 1.02 | 0.972 | 1.13 | 1.18 | 1.07 | 0.944 | 1.01 |  | 0.922 | 0.752 | 0.913
H3255 | 0.41 | 0.417 | 0.348 | 0.389 | 0.276 | 0.739 | 0.462 | 0.811 | 0.78 | 0.795 | 0.73 | 0.623 | 0.733 | 0.739 | 0.894 | 0.614 | 0.572 | 0.672 | 0.624 | 0.632
SK-LU-1 | 0.161 | 0.154 | 0.198 | 0.21 | 0.164 | 0.874 | 0.756 | 0.899 | 0.644 | 0.902 |  | 1.08 | 1.58 | 1.14 | 0.817 | 0.561 | 0.519 | 0.607 | 0.524 | 0.415
BEN | 0.305 | 0.264 | 0.297 | 0.347 | 0.317 | 0.413 | 0.482 | 0.724 | 0.656 | 0.569 | 0.675 | 0.671 | 0.906 | 0.754 | 0.656 | 1.11 | 1.11 | 1.06 | 1.01 | 1.08
NCI-H727 | 0.349 | 0.315 | 0.437 | 0.417 | 0.303 | 1.22 | 0.66 | 0.816 | 0.694 | 1.04 | 0.834 | 0.98 | 1.09 | 0.908 | 0.755 | 0.379 | 0.39 | 0.42 | 0.428 | 0.416
NCI-H1755 | 0.37 | 0.466 | 0.414 | 0.444 | 0.397 | 0.947 | 0.915 | 0.935 | 0.893 | 0.91 | 0.91 | 0.992 | 0.949 | 0.992 | 0.97 | 0.821 | 0.763 | 0.812 | 0.741 | 0.768
NCI-H1944 |  | 0.215 | 0.235 | 0.237 | 0.204 | 0.806 | 0.906 | 0.731 | 0.817 | 0.813 |  |  |  |  |  | 0.432 | 0.398 | 0.418 | 0.418 | 0.405
NCI-H322M |  | 0.255 | 0.255 | 0.262 | 0.226 |  | 0.948 | 0.871 | 1 | 0.937 |  | 0.971 | 1.27 | 1.23 | 1.26 |  | 0.52 | 0.465 | 0.5 | 0.494
NCI-H647 | 0.126 | 0.198 | 0.179 | 0.186 | 0.186 | 1.35 | 1.15 | 1.29 | 1.15 | 0.977 | 0.789 | 0.929 | 0.848 | 0.846 | 1.11 | 0.502 | 0.451 | 0.483 | 0.478 | 0.481
LXF-289 |  | 0.202 | 0.237 | 0.246 | 0.181 | 0.986 | 0.956 | 0.957 | 0.984 | 0.962 | 0.699 | 1 | 0.956 | 0.964 | 0.931 | 0.671 | 0.691 | 0.668 | 0.681 | 0.657
